Test results: patent publication EP2155158B1, “PERSONAL LUBRICANT COMPOSITION” (LRC Products Limited, priority 2007, dated 2008)
Where two headings read alike, the source gives them in different places.

What was measured:
[1] = Cooling strength of coolants relative to menthol; details: menthol = 100
Text: N-ethyl-p-menthane-3-carboxamide has, to date, primarily been used in oral, medicinal and confectionary products, such as breath freshening chewing gums. […]

[2] = Crystallisation / clouding at low temperatures; format: physicochemical
[3] = Volatility compared with menthol; format: physicochemical

For `C=C(C)C1CCC(C)CC1O` (stereo not shown) [Isopulegol, 2-isopropenyl-5-methyl-cyclohexanol], the “Cooling strength relative to menthol” value [1] was 25.
In the case of `CC1CCC(C(C)C)C(O)C1` (stereo not shown) [Menthol], the “loss of coolant on storage (reduction in the level of retained coolant)” value (personal lubricant formulation, 2190 h) is reported as “about 50%” and the “Cooling strength relative to menthol” value [1] is reported as 100.
In the case of `CC1CCC(C(C)C)C(OC(=O)C(C)O)C1` (stereo not shown) [Menthyl lactate], the “Cooling strength relative to menthol” value [1] is reported as 43.
With `CCNC(=O)C1CC(C)CCC1C(C)C` (stereo not shown) [WS-3, N-ethyl-p-menthane-3-carboxamide] the “loss of coolant on storage (reduction in the level of retained coolant)” value (in personal lubricant formulation, storage for 3 months at 40°C) was “no loss”, the “crystallisation at low temperatures” value [2] was “does not crystallise at low temperatures” and the “Cooling strength relative to menthol” value [1] was 150. For the same molecule, the volatility [3] was “lower volatility than menthol”.
For `CNC(=O)C(C)(C(C)C)C(C)C` [WS-23], the “Cooling strength relative to menthol” value [1] was 75.
With Menthone lactate the “Cooling strength relative to menthol” value [1] was 41.
